From US6875438B2, “Preparations for topical administration of substances having antiandrogenic activity” (Aventis Pharma Deutschland GmbH, priority 2002, dated 2005)

What was measured:
[1] = tested on: cells of the dermal papilla of occipital scalp; assay: Hydrolysis of compound 2 to compound 1 in cultivated dermal papilla cells (HPLC of media extracts); assay type: in vitro ADME, human; conditions: skin cells, in particular cells of the dermal papilla
Experimental: Monolayer cultures of juvenile prepuce keratinocytes and fibroblasts and of cells of the dermal papilla of occipital scalp were incubated with compound 2 in a concentration of 10^−5 M under standard conditions (5% CO2, 37° C.) for 24 h. The cell culture medium was then extracted with chloroform. The organic phase was evaporated and the residue was taken up in acetonitrile and investigated by HPLC analysis for its content of compounds 1 and 2.

[2] = Microscopic investigations for crystallization of active ingredient in the preparation; assay type: physicochemical; conditions: lipid nanoparticle preparations

## CCCCCCCCCCCCCC(=O)OCCCCN1C(=O)N(c2ccc(C#N)c(C(F)(F)F)c2)C(=O)C1(C)C [compound 2]
[1]
  Conversion of compound 2 into compound 1 (in words): significant conversion
[2]
  Crystallization of compound 2 in the preparation (microscopy): no indications of crystallization
